Results taken from patent US8614068B2, “Process for producing hepcidin” (Hellenic Pasteur Institute, priority 2007, dated 2013).
pIC50: −log10 of the molar value. Ends that are not written are not given here.

Key:
bacteria ML35p = details: at 30 μM concentration; cited from earlier work
TfR1 = assay: Western blot of TfR1 expression in macrophages; assay type: cell-based, murine; details: RAW 264.7, 10 μM, 4 h at 37° C.
Method: (§1) A, RAW 264.7 macrophages were treated with 11 μM and 10 μM of synthetic hepcidin-25 (having the sequence of SEQ ID NO. 2) and Hep-25His (having the sequence of SEQ ID NO. 6) for 4 h at 37° C. or with PBS as negative control. Cell lysates were subjected to 8% SDS PAGE and Western Blot with antibodies against TfR1, Ferroportin and actin as loading control. B, The signal density of ferroportin, TfR1 and actin protein bands from two independent experiments were quantified by densitometry and their intensity relative to actin was calculated. […] Hep25-His, negative peptide and PBS was incubated with Raw 264.7 macrophages, followed by cross-linking with DSS. Cell lysates were incubated with Ni2-NTA and eluates were analyzed by Western blot using anti-FPN1 Ab. […] HEK293-Fpn cells were induced with ponasterone for 24 h and then treated with Hep25-His or synthetic hepcidin 25 (s. Hep25) for 3 h. Fluorescence was visualized with a Leica TCS confocal microscope.
Western blotting—1×10^6 cells (RAW 264.7, THP-1 or J774) were plated in […] plates and after 12-20 h cells were treated with hepcidins in serum-free DMEM for 4 h, at 37° C. Afterwards, cells were re-suspended in lysis buffer (1% Triton, 25 mM Hepes pH 7.4, 150 mM NaCl, 10% Glycerol, 5 mM EDTA, 0.5 mM PMSF, protein inhibitors (Roche, Mannheim, Germany) and quantified by Bradford assay (Biorad, Hercules, Calif.). 30 μg of cell lysate was analyzed on 8% SDS-PAGE. Proteins were transferred to Hybond C nitrocellulose membrane (Amersham Biosciences, Piscataway, N.J.) and the membranes were incubated with the primary antibodies rabbit anti-ferroportin (Alpha Diagnostics, San Antonio, Tex.), mouse anti-TfR1 (Zymed, Invitrogen, Carlsbad, Calif.) and mouse anti-β actin (Santa Cruz Biotech, Santa Cruz, Calif.), in a dilution of 1:1000, overnight at 4° C. […] Specific signal was detected with a chemiluminescence assay kit (ECL, Amersham Biosciences, Piscataway, N.J.). The bands were quantified by densitometry using the Quantity-One (Biorad, Hercules, Calif.) software. […]

ferroportin (FPN1) = molecular target: T1, ferroportin (FPN1) (Mus musculus, UniProt Q9JHI9); assay: Western blot of ferroportin expression in macrophages; assay type: cell-based, murine; details: data not shown
T1 construct: endogenous in cells; host or cells: RAW 264.7 murine macrophages
T1 sequence (Q9JHI9 1-570): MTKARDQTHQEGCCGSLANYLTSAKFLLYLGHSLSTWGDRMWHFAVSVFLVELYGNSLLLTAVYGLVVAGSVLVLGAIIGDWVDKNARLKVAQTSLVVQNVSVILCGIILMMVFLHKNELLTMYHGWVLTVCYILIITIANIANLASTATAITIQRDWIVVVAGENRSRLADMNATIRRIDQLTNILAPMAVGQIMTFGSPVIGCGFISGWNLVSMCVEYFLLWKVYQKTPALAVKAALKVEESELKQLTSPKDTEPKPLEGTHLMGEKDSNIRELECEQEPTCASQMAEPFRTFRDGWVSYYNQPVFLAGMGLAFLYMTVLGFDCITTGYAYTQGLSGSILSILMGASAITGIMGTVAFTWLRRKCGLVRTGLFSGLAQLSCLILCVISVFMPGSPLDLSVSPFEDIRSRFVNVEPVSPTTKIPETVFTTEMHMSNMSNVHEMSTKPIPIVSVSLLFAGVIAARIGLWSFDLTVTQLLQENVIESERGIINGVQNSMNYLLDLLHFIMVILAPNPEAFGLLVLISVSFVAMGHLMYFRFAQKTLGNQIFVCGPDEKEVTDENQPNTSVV
Method: as §1
Western blotting—1×10^6 cells (RAW 264.7, THP-1 or J774) were plated in […] plates and after 12-20 h cells were treated with hepcidins in serum-free DMEM for 4 h, at 37° C. Afterwards, cells were re-suspended in lysis buffer (1% Triton, 25 mM Hepes pH 7.4, 150 mM NaCl, 10% Glycerol, 5 mM EDTA, 0.5 mM PMSF, protein inhibitors (Roche, Mannheim, Germany) and quantified by Bradford assay (Biorad, Hercules, Calif.). 30 μg of cell lysate was analyzed on 8% SDS-PAGE. Proteins were transferred to Hybond C nitrocellulose membrane (Amersham Biosciences, Piscataway, N.J.) and the membranes were incubated with the primary antibodies rabbit anti-ferroportin (Alpha Diagnostics, San Antonio, Tex.), mouse anti-TfR1 (Zymed, Invitrogen, Carlsbad, Calif.) and mouse anti-β actin (Santa Cruz Biotech, Santa Cruz, Calif.), in a dilution of 1:1000, overnight at 4° C. After washing, the membranes were incubated with anti-rabbit and anti-mouse secondary antibodies conjugated with HRP, in a dilution of 1:5000 (DakoCytomation, Carpinteria, Calif.), for 1 h at room temperature. Specific signal was detected with a chemiluminescence assay kit (ECL, Amersham Biosciences, Piscataway, N.J.). The bands were quantified by densitometry using the Quantity-One (Biorad, Hercules, Calif.) software. Data are shown as means±SD. Statistical analysis was performed by student t-Test.

Method for E. coli strain ML35: Antimicrobial activity of recombinant tagged hepcidins. E. coli strain ML35 was subjected to CFU assay in order to determine the antimicrobial activity of synthetic hepcidin 25 (s. Hep25) having the sequence os SEQ ID NO. 2, Hep-25His having the sequence of SEQ ID NO. 6, Hep-25MycHis having the sequence of SEQ ID NO. 8, Hep-20MycHis having the sequence of SEQ ID NO. 7 and negative peptide having the sequence SEQ ID NO. 9 at the concentrations indicated for 2 h at 37° C. Sodium phosphate buffer was used as negative control.
Antimicrobial assay—All purified recombinant hepcidins were tested for antibacterial activity against E. coli ML35 and BL21(DE) is a CFU assay (Porter E. M., van Dam E., Valore E. V., Ganz T., Broad-spectrum antimicrobial activity of human intestinal defensin 5, Infect. Immun. 65 (1997) 2396-2401.). Bacterial cell cultures were grown to OD600=0.2 (5×10^7 cfu/ml) and resuspended to a final concentration of 10^6 cfu/ml in 20mM sodium phosphate buffer, pH7.4. Various concentrations of peptides were added to a final volume of 100 μl and after incubation for 2 h at 37° C., surviving cells were plated in triplicates to LB/agar plates.
Antimicrobial activity of recombinant hepcidins—The colony forming unit assay (E. M. Porter, E. van Dam, E. V. Valore, T. Ganz, Broad-spectrum antimicrobial activity of human intestinal defensin 5, Infect. Immun. 65 (1997) 2396-2401) was used to determine the antimicrobial activity of the purified recombinant hepcidin forms against the E. coli strain, ML35. […] Surviving microbes were counted following incubation with various concentrations of recombinant hepcidin preparations, synthetic hepcidin or negative peptide for 2 h at 37° C.

hep25: hepcidin 25 as tested by Park et al. 2001 (natural, isolated from urine, or synthetic) (DTHFPICIFCCGCCHRSKCGMCCKT; ends and bridges not checked; cysteine pairing not given here; UniProt P81172 60-84, looked up)
reduction of surviving bacteria ML35p (bacteria ML35p): 1000 fold

hepcidin-20 (ICIFCCGCCHRSKCGMCCKT; listed as Homo sapiens)
concentration at which bactericidal (E. coli strain ML35; CFU assay, 2 h at 37° C., data not shown): higher than 10 mM

hep20: hepcidin 20 as tested by Park et al. 2001 (ICIFCCGCCHRSKCGMCCKT; ends and bridges not checked; cysteine pairing not given here; UniProt P81172 65-84, looked up)
reduction of surviving bacteria ML35p (bacteria ML35p): 1000 fold

CC[C@H](C)[C@@H]1NC(=O)[C@@H](NC(=O)[C@@H](NC(=O)[C@@H]2CCCN2C(=O)[C@H](Cc2ccccc2)NC(=O)[C@H](Cc2c[nH]cn2)NC(=O)[C@@H](NC(=O)[C@@H](N)CC(=O)O)[C@@H](C)O)[C@@H](C)CC)CSSC[C@@H](C(=O)N[C@@H](CCCCN)C(=O)N[C@H](C(=O)O)[C@@H](C)O)NC(=O)[C@@H]2CSSC[C@H](NC(=O)[C@H](Cc3ccccc3)NC1=O)C(=O)N[C@H]1CSSC[C@H](NC(=O)[C@H](CCCCN)NC(=O)[C@H](CO)NC(=O)[C@H](CCCNC(=N)N)NC(=O)[C@H](Cc3c[nH]cn3)NC(=O)[C@@H]3CSSC[C@H](NC(=O)CNC1=O)C(=O)N3)C(=O)NCC(=O)N[C@@H](CCSC)C(=O)N2 [synthetic hepcidin 25, hepcidin 25, reference compound]
pIC50 (E. coli strain ML35; ML35, 2 h): 5.05
reduction of TfR1 in comparison to untreated cells (TfR1): 37%±6

oligomeric fraction of Hep25-His: oligomer peak of Ni-NTA purified Hep-25His from size exclusion chromatography
effect on cellular iron metabolism (ferroportin (FPN1)): no effect
